Measurements: patent US20260022142A1, “MACROCYCLIC IMMUNOMODULATORS” (Bristol-Myers Squibb Company, priority 2022, published 2026)
Numbered stars: 1 amine (or outer) side, 2 acyl side, 3 side chain; on linkers, the order of the positions; unused ones are H or OH. Bridge positions count the residues as written; N and C are the ends. Square brackets hold non-standard residues; d marks the D form. Peptide text beside a SMILES is read from it. * marks the point of attachment. ξ: configuration not given here. Phe(3-CF3) = N[C@@H](Cc1cccc(C(F)(F)F)c1)C(=O)O; Phe(4-COOH) = N[C@@H](Cc1ccc(C(=O)O)cc1)C(=O)O; Bip = N[C@@H](Cc1ccc(-c2ccccc2)cc1)C(=O)O; NH(CH2)14COOH = O=C(O)CCCCCCCCCCCCCCN*; Phe(3-Me) = Cc1cccc(C[C@H](N)C(=O)O)c1; γGlu = O=C(O)[C@H](CCC(=O)[*:2])N[*:1]; NH(CH2)12COOH = O=C(O)CCCCCCCCCCCCN*; PEG6 = NCCOCCOCCOCCOCCOCCOCCC(=O)O; Val(3-OH) = CC(C)(O)[C@H](N)C(=O)O; Cha = N[C@@H](CC1CCCCC1)C(=O)O; aThr = C[C@H](O)[C@H](N)C(=O)O; Thr(3ξ) = CC(O)[C@H](N)C(=O)O; PEG4 = NCCOCCOCCOCCOCCC(=O)O; Dap(Me) = CNC[C@H](N)C(=O)O; Carboxymethyl = O=C(O)C*; Orn = NCCC[C@H](N)C(=O)O; Dab = NCC[C@H](N)C(=O)O; AEEA = NCCOCCOCC(=O)O

Target: T1, PD-1/PD-L1 interaction (PE-labeled human PD-L1-Ig binding to Jurkat cell line over-expressing human PD-1) (Homo sapiens, UniProt Q15116)
T1 construct: expressed in transfected cells; host or cells: Jurkat
Assay: Jurkat-PD-1 Cell Binding High-Content Screening Assay (CBA)
Assay type: cell-based
Conditions: Jurkat cell line over-expressing human PD-1; PE-labeled PD-L1-Ig 20 nM final; read-out: Jurkat hPD1-PDL1 IC50
In short: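 Jurkat cells stably over-expressing human PD-1 were seeded in DMEM with 10% fetal calf serum and pre-incubated with compound for 2 h at 37° C. PE-labeled human PD-L1-Ig was then added at 20 nM final for 1 hour, after which cells were fixed with paraformaldehyde, Hoechst-stained and imaged by high-content microscopy.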

T1 sequence (Q15116 25-288): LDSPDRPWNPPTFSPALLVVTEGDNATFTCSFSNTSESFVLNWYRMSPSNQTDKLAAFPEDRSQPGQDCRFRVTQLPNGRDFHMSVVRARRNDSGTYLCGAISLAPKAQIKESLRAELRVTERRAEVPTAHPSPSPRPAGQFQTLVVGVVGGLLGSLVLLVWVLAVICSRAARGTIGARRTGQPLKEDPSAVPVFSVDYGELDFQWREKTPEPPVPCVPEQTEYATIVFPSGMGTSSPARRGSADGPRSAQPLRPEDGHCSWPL

CNC[C@@H]1NC(=O)CSC[C@@H](C(=O)N[C@@H](CCN)C(=O)NCCOCCOCC(=O)N[C@@H](CCC(=O)NCCOCCOCC(=O)NCCCCCCCCCCCCC(=O)O)C(=O)O)NC(=O)[C@H](CO)NC(=O)[C@H](C(C)(C)O)NC(=O)[C@H](CC2CCCCC2)NC(=O)[C@H](CCN)NC(=O)[C@@H](CC(C)C)NC(=O)[C@H](CCCN)NC(=O)[C@H](Cc2ccc(OCC(=O)O)cc2)NC(=O)[C@H](Cc2ccc(-c3ccccc3)cc2)NC(=O)[C@H](Cc2ccc(OCC(=O)O)cc2)NC(=O)[C@H](Cc2cccc(C(F)(F)F)c2)NC(=O)[C@H](CC(=O)O)NC(=O)[C@H](Cc2ccc(OCC(=O)O)cc2)NC1=O [Compound 3905] ({CH2CO}-[Dap(Me)]Y(Carboxymethyl)D[Phe(3-CF3)]Y(Carboxymethyl)[Bip]Y(Carboxymethyl)[Orn][dL][Dab][Cha][Val(3-OH)]SC[Dab][AEEA][γGlu][AEEA]-{NH(CH2)12COOH}; thioether N-14) showed an IC50 of 0.0384 µM.

In the case of Cc1cccc(C[C@@H]2NC(=O)[C@H](CC(=O)O)NC(=O)[C@H](Cc3ccc(OCC(=O)O)cc3)NC(=O)[C@H](C(C)O)NC(=O)CSC[C@@H](C(=O)N[C@@H](CCN)C(=O)NCCOCCOCC(=O)N[C@@H](CCC(=O)NCCOCCOCC(=O)NCCCCCCCCCCCCC(=O)O)C(=O)O)NC(=O)[C@H](CO)NC(=O)[C@H](C(C)(C)O)NC(=O)[C@H](CC3CCCCC3)NC(=O)[C@H](CCN)NC(=O)[C@@H](CC(C)C)NC(=O)[C@H](CCCN)NC(=O)[C@H](Cc3ccc(OCC(=O)O)cc3)NC(=O)[C@H](Cc3ccc(-c4ccccc4)cc3)NC(=O)[C@H](Cc3ccc(OCC(=O)O)cc3)NC2=O)c1 (stereo partly drawn) [Compound 3906] ({CH2CO}-[Thr(3ξ)]Y(Carboxymethyl)D[Phe(3-Me)]Y(Carboxymethyl)[Bip]Y(Carboxymethyl)[Orn][dL][Dab][Cha][Val(3-OH)]SC[Dab][AEEA][γGlu][AEEA]-{NH(CH2)12COOH}; thioether N-14), the IC50 is reported as 0.0177 µM.

Cc1cccc(C[C@@H]2NC(=O)[C@H](CC(=O)O)NC(=O)[C@H](Cc3ccc(OCC(=O)O)cc3)NC(=O)[C@H](C(C)O)NC(=O)CSC[C@@H](C(=O)N[C@@H](CCN)C(=O)NCCOCCOCC(=O)N[C@@H](CCC(=O)NCCOCCOCC(=O)NCCCCCCCCCCCCC(=O)O)C(=O)O)NC(=O)[C@H](CO)NC(=O)[C@H](C(C)(C)O)NC(=O)[C@H](CC3CCCCC3)NC(=O)[C@H](CCN)NC(=O)[C@@H](CC(C)C)NC(=O)[C@H](CCCN)NC(=O)[C@H](Cc3ccc(C(=O)O)cc3)NC(=O)[C@H](Cc3ccc(-c4ccccc4)cc3)NC(=O)[C@H](Cc3ccc(C(=O)O)cc3)NC2=O)c1 (stereo partly drawn) [Compound 3907] ({CH2CO}-[Thr(3ξ)]Y(Carboxymethyl)D[Phe(3-Me)][Phe(4-COOH)][Bip][Phe(4-COOH)][Orn][dL][Dab][Cha][Val(3-OH)]SC[Dab][AEEA][γGlu][AEEA]-{NH(CH2)12COOH}; thioether N-14) was tested, and the IC50 was 0.0166 µM.

COC[C@@H]1NC(=O)CSC[C@@H](C(=O)N[C@@H](CCN)C(=O)NCCOCCOCCOCCOCCC(=O)N[C@@H](CCC(=O)N[C@@H](CO)C(=O)NCCCCCCCCCCCCCCC(=O)O)C(=O)O)NC(=O)[C@H](CO)NC(=O)[C@H](C(C)(C)O)NC(=O)[C@H](CC2CCCCC2)NC(=O)[C@H](CCN)NC(=O)[C@@H](CC(C)C)NC(=O)[C@H](CCCN)NC(=O)[C@H](Cc2ccc(C(=O)O)cc2)NC(=O)[C@H](Cc2ccc(-c3ccccc3)cc2)NC(=O)[C@H](Cc2ccc(C(=O)O)cc2)NC(=O)[C@H](Cc2cccc(C(F)(F)F)c2)NC(=O)[C@H](CC(=O)O)NC(=O)[C@H](Cc2ccc(C(=O)O)cc2)NC1=O [Compound 3908] ({CH2CO}-S(Me)[Phe(4-COOH)]D[Phe(3-CF3)][Phe(4-COOH)][Bip][Phe(4-COOH)][Orn][dL][Dab][Cha][Val(3-OH)]SC[Dab][PEG4][γGlu]S-{NH(CH2)14COOH}; thioether N-14) gave an IC50 of 0.125 µM.

Cc1cccc(C[C@@H]2NC(=O)[C@H](CC(=O)O)NC(=O)[C@H](Cc3ccc(C(=O)O)cc3)NC(=O)[C@H](CC(C)C)NC(=O)CSC[C@@H](C(=O)N[C@@H](CCN)C(=O)NCCOCCOCCOCCOCCC(=O)NCCCCCCCCCCCCCCC(=O)O)NC(=O)[C@H](CCC(=O)O)NC(=O)[C@H](C(C)C)NC(=O)[C@H](CC3CCCCC3)NC(=O)[C@H](CCN)NC(=O)[C@@H](CC(C)C)NC(=O)[C@H](CCCN)NC(=O)[C@H](Cc3ccc(C(=O)O)cc3)NC(=O)[C@H](Cc3ccc(-c4ccccc4)cc3)NC(=O)[C@H](Cc3ccc(C(=O)O)cc3)NC2=O)c1 [Compound 3909] ({CH2CO}-L[Phe(4-COOH)]D[Phe(3-Me)][Phe(4-COOH)][Bip][Phe(4-COOH)][Orn][dL][Dab][Cha]VEC[Dab][PEG4]-{NH(CH2)14COOH}; thioether N-14) was tested, and the IC50 was 0.0157 µM.

Compound CC(C)C[C@@H]1NC(=O)CSC[C@@H](C(=O)N[C@@H](CCN)C(=O)NCCOCCOCCOCCOCCC(=O)NCCCCCCCCCCCCCCC(=O)O)NC(=O)[C@H](CCC(=O)O)NC(=O)[C@H](C(C)C)NC(=O)[C@H](CC2CCCCC2)NC(=O)[C@H](CCN)NC(=O)[C@@H](CC(C)C)NC(=O)[C@H](CCCN)NC(=O)[C@H](Cc2ccc(C(=O)O)cc2)NC(=O)[C@H](Cc2ccc(-c3ccccc3)cc2)NC(=O)[C@H](Cc2ccc(C(=O)O)cc2)NC(=O)[C@H](Cc2cccc(C(F)(F)F)c2)NC(=O)[C@H](CC(=O)O)NC(=O)[C@H](Cc2ccc(C(=O)O)cc2)NC1=O [Compound 3910] ({CH2CO}-L[Phe(4-COOH)]D[Phe(3-CF3)][Phe(4-COOH)][Bip][Phe(4-COOH)][Orn][dL][Dab][Cha]VEC[Dab][PEG4]-{NH(CH2)14COOH}; thioether N-14) has an IC50 of 0.597 µM.

Compound Cc1cccc(C[C@@H]2NC(=O)[C@H](CC(=O)O)NC(=O)[C@H](Cc3ccc(OCC(=O)O)cc3)NC(=O)[C@H]([C@H](C)O)NC(=O)CSC[C@@H](C(=O)N[C@@H](CCN)C(=O)NCCOCCOCCOCCOCCOCCOCCC(=O)NCCCCCCCCCCCCCCC(=O)O)NC(=O)[C@H](CCC(=O)O)NC(=O)[C@H](C(C)C)NC(=O)[C@H](CC3CCCCC3)NC(=O)[C@H](CCN)NC(=O)[C@@H](CC(C)C)NC(=O)[C@H](CCCN)NC(=O)[C@H](Cc3ccc(OCC(=O)O)cc3)NC(=O)[C@H](Cc3ccc(-c4ccccc4)cc3)NC(=O)[C@H](Cc3ccc(C(=O)O)cc3)NC2=O)c1 [Compound 3911] ({CH2CO}-[aThr]Y(Carboxymethyl)D[Phe(3-Me)][Phe(4-COOH)][Bip]Y(Carboxymethyl)[Orn][dL][Dab][Cha]VEC[Dab][PEG6]-{NH(CH2)14COOH}; thioether N-14) has an IC50 of 0.0905 µM.

Work on CC(C)C[C@H]1NC(=O)[C@H](CCCN)NC(=O)[C@H](Cc2ccc(OCC(=O)O)cc2)NC(=O)[C@H](Cc2ccc(-c3ccccc3)cc2)NC(=O)[C@H](Cc2ccc(C(=O)O)cc2)NC(=O)[C@H](Cc2cccc(C(F)(F)F)c2)NC(=O)[C@H](CC(=O)O)NC(=O)[C@H](Cc2ccc(OCC(=O)O)cc2)NC(=O)[C@H]([C@H](C)O)NC(=O)CSC[C@@H](C(=O)N[C@@H](CCN)C(=O)NCCOCCOCCOCCOCCOCCOCCC(=O)NCCCCCCCCCCCCCCC(=O)O)NC(=O)[C@H](CCC(=O)O)NC(=O)[C@H](C(C)C)NC(=O)[C@H](CC2CCCCC2)NC(=O)[C@H](CCN)NC1=O [Compound 3912] ({CH2CO}-[aThr]Y(Carboxymethyl)D[Phe(3-CF3)][Phe(4-COOH)][Bip]Y(Carboxymethyl)[Orn][dL][Dab][Cha]VEC[Dab][PEG6]-{NH(CH2)14COOH}; thioether N-14) yielded an IC50 of 0.252 µM.
